Test results: patent US20250171821A1, “HIF-1 ACTIVATORS AND USES THEREOF” (Ramot at Tel-Aviv University Ltd., priority 2022, published 2025)
“Also recorded” adds a separate entry of the source. Like-named read-outs stand apart in the source and are kept apart here.

Key:
[1] = system: fibroblast cells; test: live/dead viability assay, fibroblasts; format: cell-based; conditions: ML228 0.62 and 5 μM, 48 hours
Procedure: (§1) The live/dead viability assay (cat #04511-1KT-F Merck, Germany) was used according to the manufacturer's protocol. Briefly, cells were incubated in a medium supplemented with the indicated concentrations of ML228 for 48 hours. Fluorescein diacetate (6.6 μg/mL) and propidium iodide (5 μg/mL) (Merck, NJ, USA) were prepared in DMEM and added to the cells. Confocal images were captured after addition of the dyes with ZEISS LSM 900, Laser Scanning Microscope. Fluorescence readouts were obtained with ex/em of 490/515 nm and 535/617 nm for green and red, respectively. Cellular ATP levels were quantified using the cell-titer assay (Promega, WI, USA cat #G7570).

[2] = system: fibroblasts; test: Cell-Titer assay of cellular ATP levels, fibroblasts; format: cell-based; conditions: for IC50: Homo sapiens, Fibroblast
From the text: Human fibroblasts were isolated from fragments of healthy masticatory oral mucosa (from the posterior hard palate) collected during periodontal surgeries. Informed consent was obtained from all patients. Shallow tissue samples (without submucosa) with a diameter of approximately 2 mm were excised using a #15C scalpel blade. Exclusion criteria for potential tissue donors were smoking, any systemic disease, pregnancy or lactation, or a history of periodontal disease. Cells were separated into connective tissue and epithelium using dispase II (Sigma-Aldrich, Rehovot, Israel) at 2 mg/mL for two hours at 37° C.
as §1

[3] = system: MG-63 osteoblasts; test: Collagen-I immunofluorescence in MG-63 osteoblasts treated with ML228; format: cell-based, human
Procedure: MG-63 human osteosarcoma cell lines were obtained from the American Type Culture Collection (ATCC, Manassas, VA, USA). Cells were cultured in α-MEM supplemented with 10% FCS, 100 U/ml penicillin, and […] streptomycin at 37° C. in a humidified atmosphere incubator containing 5% CO2. Before treatment with ML228, 5,000 and 50,000 cells/well were seeded in a 96 or 24 well-plate, respectively.
Cells were cultured to sub-confluence on a 96-well plate culture plate or on round-glass cover slips in a 24 well plate and incubated with ML228 at 37° C. in 5% CO2 for 24-96 hours. […] Fluorescence readouts were obtained with excitation/emission (ex/em) of 495/519 nanometer (nm; green) and 340/488 nm (blue) (for FIGS. 2B and 2D); or with ex/em of 358/461 nm (blue), 495/519 nm (green) and 652/668 nm (red) (for FIG. 5A).
All images were analyzed with the computer-based image analysis system (Image J) using the Fiji 2 software (National Institute of Health). Equal field areas were selected for analysis and quantification of fluorescence signals. Quantification of fluorescence signal intensity measured by color threshold and normalized against β-tubulin intensity. Total collagen was evaluated by total fluorescence area intensity.
The effect of ML228 (chemical structure thereof is depicted in FIG. 1), a known activator of HIF, on fibroblasts and osteoblasts was analyzed. […]

[4] = system: MG-63 cells; test: live/dead viability assay, osteoblasts; format: cell-based; conditions: MG-63 osteoblasts, ML228 0.62 and 5 μM, 48 hours
Procedure: as §1

`c1ccc(-c2ccc(CNc3nc(-c4ccccn4)nnc3-c3ccccc3)cc2)cc1` [ML228, N-([1,1′-Biphenyl]-4-ylmethyl)-6-phenyl-3-(2-pyridinyl)-1,2,4-triazin-5-amine] was tested, and the “cell death / cellular toxicity (live/dead assay)” value [1] was “without imparting cellular toxicity; also recorded: without imparting cellular death; also recorded: not an increase in cell death”, the IC50 ([2]; fibroblasts, 48 hours, read-out: IC50 (ATP levels relative to non-treated cells)) was 679 nM and the IC50 ([2]; summary statement for the treated cells (fibroblasts and osteoblasts), read-out: IC50 of cellular viability of ML228-treated cells) was roughly 600 nM. For the same molecule, the “metabolically active cell viability as measured by ATP levels” value ([2]; fibroblasts, increasing ML228 concentrations, 48 hours) was “decrease in metabolically active cell viability”, the “concentration of maximum enhancement of Collagen-I” value ([3]; MG-63, 48 hours, normalized to cell number (DAPI), FIG. 9B) was 5 µM and the “increase in collagen levels compared to non-treated cells” value ([3]; osteoblasts (MG-63), variable ML228 concentrations, 48 hours) was “more than a three-fold increase; also recorded: increased”. For the same molecule, the “cell death / cellular toxicity (live/dead assay)” value [4] was “without imparting cellular toxicity; also recorded: Almost no dead cells were observed; also recorded: not an increase in cell death”.
